Laboratory results taken from patent US20070275968A1, “Substituted Biphenyl Derivative” (priority 2004, published 2007).

SMILES	melting point [°C]
CCn1cc(-c2cc(-c3[nH]c(C(C)C)nc3-c3cccc(C)n3)ccc2F)cn1 [Example 107, 2-{5-[3-(1-Ethyl-1H-pyrazol-4-yl)-4-fluorophenyl]-2-isopropyl-1H-imidazol-4-yl}-6-methylpyridine]	76 to 78
Cc1cccc(-c2[nH]c(C(C)C)nc2-c2cccc(-c3ccc(NS(=O)(=O)C4CC4)cn3)c2)n1 [Example 87, N-(6-{3-[2-Isopropyl-5-(6-methylpyridin-2-yl)-1H-imidazol-4-yl]phenyl}pyridin-3-yl)cyclopropanesulfonamide]	133 to 136
Cc1cccc(-c2[nH]c(C(C)C)nc2-c2cccc(-c3ccc(NS(C)(=O)=O)cc3)c2)n1 [Example 15, N-{3′-[2-Isopropyl-5-(6-methylpyridin-2-yl)-1H-imidazol-4-yl]-1,1′-biphenyl-4-yl}methanesulfonamide]	128 to 130
Cc1cccc(-c2[nH]c(C(C)C)nc2-c2ccc(F)c(-c3ccc(S(C)(=O)=O)nc3)c2)n1 [Example 129, 5-{2-Fluoro-5-[2-isopropyl-5-(6-methylpyridin-2-yl)-1H-imidazol-4-yl]phenyl}-2-(methylsulfonyl)pyridine]	102 to 105
Cc1cccc(-c2[nH]c(C(C)C)nc2-c2cccc(-c3ccc(N)cn3)c2)n1 [Example 76, 6-{3-[2-Isopropyl-5-(6-methylpyridin-2-yl)-1H-imidazol-4-yl]phenyl}pyridine-3-amine]	119 to 124
Cc1cccc(-c2nc(N)sc2-c2cccc(-c3ccc(S(C)(=O)=O)cc3)c2)n1 [Example 62, 4-(6-Methylpyridin-2-yl)-5-[4′-(methylsulfonyl)-1,1′-biphenyl-3-yl]-1,3-thiazol-2-amine]	107 to 109
Cc1cccc(-c2[nH]c(C(C)C)nc2-c2cccc(-c3ccccc3F)c2)n1 [Example 6, 2-[4-(2′-Fluoro-1,1′-biphenyl-3-yl)-2-isopropyl-1H-imidazol-5-yl]-6-methylpyridine]	153 to 155
CC(=O)c1ccc(-c2cccc(-c3nc(C(C)C)[nH]c3-c3cccc(C)n3)c2)cc1 [Example 24, 1-{3′-[2-Isopropyl-5-(6-methylpyridin-2-yl)-1H-imidazol-4-yl]-1,1′-biphenyl-4-yl}ethanone]	84 to 87
Cc1cccc(-c2[nH]c(C(C)C)nc2-c2cccc(-c3cccc(S(N)(=O)=O)c3)c2)n1 [Example 42, 3′-[2-Isopropyl-5-(6-methylpyridin-2-yl)-1H-imidazol-4-yl]-1,1′-biphenyl-3-sulfonamide]	123 to 126
Cc1cccc(-c2[nH]c(C(C)C)nc2-c2ccc(F)c(-c3c[nH]c(C)n3)c2)n1 [Example 141, 2-{4-[4-Fluoro-3-(2-methyl-1H-imidazol-4-yl)phenyl]-2-isopropyl-1H-imidazol-5-yl}-6-methylpyridine]	230 to 234
Cc1cccc(-c2[nH]c(C(C)C)nc2-c2ccc(F)c(-c3ccc([S+](C)[O-])nc3)c2)n1 (centres unmarked) [Example 128, 5-{2-Fluoro-5-[2-isopropyl-5-(6-methylpyridin-2-yl)-1H-imidazol-4-yl]phenyl}-2-(methylsulfinyl)pyridine]	100 to 102
Cc1cccc(-c2[nH]c(C(C)C)nc2-c2ccc(F)c(-c3ccc(S(C)(=O)=O)cn3)c2)n1 [Example 124, 2-{2-Fluoro-5-[2-isopropyl-5-(6-methylpyridin-2-yl)-1H-imidazol-4-yl]phenyl}-5-(methylsulfonyl)pyridine]	105 to 108
Cc1cccc(-c2[nH]c(C(C)C)nc2-c2cccc(-n3ccnc3)c2)n1 [Example 90, 2-{4-[3-(1H-Imidazol-1-yl)phenyl]-2-isopropyl-1H-imidazol-5-yl}-6-methylpyridine]	158 to 161
Cc1cccc(-c2[nH]c(C(C)C)nc2-c2cccc(-c3ccc(C(=O)NN4CCOCC4)cc3)c2)n1 [Example 51, N-(Morpholin-4-yl)-4-{3-[2-isopropyl-5-(6-methylpyridin-2-yl)-1H-imidazol-4-yl]-phenyl}benzamide]	145
Cc1cccc(-c2[nH]c(C(C)C)nc2-c2cccc(-c3ccc4c(c3)C(=O)CCS4(=O)=O)c2)n1 [Example 81, 6-{3-[2-Isopropyl-5-(6-methylpyridin-2-yl)-1H-imidazol-4-yl]phenyl}-2,3-dihydro-4H-thiochromen-4-one 1,1-dioxide]	115 to 119
Cc1cccc(-c2[nH]c(C(C)C)nc2-c2cccc(-c3ccc(S(N)(=O)=O)cc3F)c2)n1 [Example 75, 2-Fluoro-3′-[2-isopropyl-5-(6-methylpyridin-2-yl)-1H-imidazol-4-yl]-1,1′-biphenyl-4-sulfonamide]	246 to 248
Cc1cccc(-c2[nH]c(C3CC3)nc2-c2cccc(-c3ccc(C(=O)NC4CCOCC4)cc3)c2)n1 [Example 46, N-(Tetrahydropyran-4-yl)-4-{3-[2-cyclopropyl-5-(6-methylpyridin-2-yl)-1H-imidazol-4-yl]phenyl}benzamide]	127 to 128
Cc1cccc(-c2[nH]c(C(C)C)nc2-c2ccc(F)c(-c3ncc[nH]3)c2)n1 [Example 134, 2-{4-[4-Fluoro-3-(1H-imidazol-2-yl)phenyl]-2-isopropyl-1H-imidazol-5-yl}-6-methylpyridine]	201 to 205
Cc1cccc(-c2[nH]c(C(C)C)nc2-c2cccc(-c3ccc(S(C)(=O)=O)cn3)c2)n1 [Example 88, 2-{3-[2-Isopropyl-5-(6-methylpyridin-2-yl)-1H-imidazol-4-yl]phenyl}-5-(methylsulfonyl)pyridine]	112 to 114
Cc1cccc(-c2[nH]c(C(C)C)nc2-c2ccc(F)c(-c3c[nH]nn3)c2)n1 [Example 106, 2-{4-[4-Fluoro-3-(1H-1,2,3-triazol-4-yl)phenyl]-2-isopropyl-1H-imidazol-5-yl}-6-methylpyridine]	233 to 235
Cc1cccc(-c2nc(C(C)C)[nH]c2-c2ccc(F)c(-c3ccc(NS(=O)(=O)C4CC4)cc3)c2)n1 [Example 111, N-{2′-Fluoro-5′-[2-isopropyl-4-(6-methylpyridin-2-yl)-1H-imidazol-5-yl]-1,1′-biphenyl-4-yl}cyclopropanesulfonamide]	119 to 129

Continued, values first:

melting point [°C]	SMILES
174 to 176	Cc1cccc(-c2n[nH]cc2-c2ccc(F)c(-c3ccc(C(C)(O)CF)cn3)c2)n1 (centres unmarked) [Example 163, 1-Fluoro-2-(6-{2-fluoro-5-[3-(6-methylpyridin-2-yl)-1H-pyrazol-4-yl]phenyl}pyridin-3-yl)propan-2-ol]
225 to 226	NS(=O)(=O)c1ccc(-c2cc(-c3c[nH]nc3-c3cccc(C4CC4)n3)ccc2F)cc1 [Example 204, 5′-[3-(6-Cyclopropylpyridin-2-yl)-1H-pyrazol-4-yl]-2′-fluoro-1,1′-biphenyl-4-sulfonamide]
125 to 127	Cc1cccc(-c2n[nH]cc2-c2ccc(F)c(-c3c[nH]c(C(O)CO)n3)c2)n1 (centres unmarked) [Example 207, 1-(4-{2-Fluoro-5-[3-(6-methylpyridin-2-yl)-1H-pyrazol-4-yl]phenyl}-1H-imidazol-2-yl)ethane-1,2-diol]
104 to 109	Cc1cccc(-c2n[nH]cc2-c2ccc(F)c(-c3ccc(O)c(S(N)(=O)=O)c3)c2)n1 [Example 148, 2′-Fluoro-4-hydroxy-5′-[3-(6-methylpyridin-2-yl)-1H-pyrazol-4-yl]-1,1′-biphenyl-3-sulfonamide]
134 to 136	Cn1cc(-c2cc(-c3c[nH]nc3-c3ccccn3)ccc2F)cn1 [Example 201, 2-{4-[4-Fluoro-3-(1-methyl-1H-pyrazol-4-yl)phenyl]-1H-pyrazol-3-yl}pyridine]
170 to 175	CCc1nc(-c2cc(-c3nc(C(C)C)[nH]c3-c3cccc(C)n3)ccc2F)c[nH]1 [Example 142, 2-{4-[3-(2-Ethyl-1H-imidazol-4-yl)-4-fluorophenyl]-2-isopropyl-1H-imidazol-5-yl}-6-methylpyridine]
119 to 121	Cc1cccc(-c2n[nH]cc2-c2ccc(F)c(-c3ccc(S(N)(=O)=O)c(F)c3)c2)n1 [Example 147, 2′,3-Difluoro-5′-[3-(6-methylpyridin-2-yl)-1H-pyrazol-4-yl]-1,1′-biphenyl-4-sulfonamide]
202 to 204	Cc1cccc(-c2nc(N)sc2-c2ccc(F)c(-c3ccc(S(C)(=O)=O)cc3)c2)n1 [Example 215, 5-[6-Fluoro-4′-(methylsulfonyl)-1,1′-biphenyl-3-yl]-4-(6-methylpyridin-2-yl)-1,3-thiazol-2-amine]
162	Cc1cccc(-c2n[nH]cc2-c2ccc(F)c(-c3ncc(C(C)(C)O)cn3)c2)n1 [Example 183, 2-(2-{2-Fluoro-5-[3-(6-methylpyridin-2-yl)-1H-pyrazol-4-yl]phenyl}pyrimidin-5-yl)propan-2-ol]
122 to 125	Cc1cccc(-c2n[nH]cc2-c2ccc(F)c(-c3cc(F)c(S(N)(=O)=O)cc3F)c2)n1 [Example 149, 2,2′,5-Trifluoro-5′-[3-(6-methylpyridin-2-yl)-1H-pyrazol-4-yl]-1,1′-biphenyl-4-sulfonamide]
239 to 240	Cc1cccc(-c2n[nH]cc2-c2ccc(F)c(-c3c[nH]c(CCN4CCOCC4)n3)c2)n1 [Example 213, 4-[2-(4-{2-Fluoro-5-[3-(6-methylpyridin-2-yl)-1H-pyrazol-4-yl]phenyl}-1H-imidazol-2-yl)ethyl]morpholine]
97	Cc1cccc(-c2n[nH]cc2-c2ccc(F)c(-c3ccc(N4CCN(C)CC4)cn3)c2)n1 [Example 188, 1-(6-{2-Fluoro-5-[3-(6-methylpyridin-2-yl)-1H-pyrazol-4-yl]phenyl}pyridin-3-yl)-4-methylpiperazine]
141 to 142	Cc1cccc(-c2n[nH]cc2-c2ccc(F)c(-c3ccc[nH]3)c2)n1 [Example 193, 2-{4-[4-Fluoro-3-(1H-pyrrol-2-yl)phenyl]-1H-pyrazol-3-yl}-6-methylpyridine]
243 to 246	Cc1cccc(-c2n[nH]cc2-c2ccc(F)c(-c3c[nH]c(CO)n3)c2)n1 [Example 208, (4-{2-Fluoro-5-[3-(6-methylpyridin-2-yl)-1H-pyrazol-4-yl]phenyl}-1H-imidazol-2-yl)methanol]
